# Measurements taken from paper PMC6723352, “Exploring Structure-Activity Relationship in Tacrine-Squaramide Derivatives as Potent Cholinesterase Inhibitors” (Biomolecules, 2019).
# Tests used:
# [1] = molecular target: human BChE (hBChE), human plasmatic butyrylcholinesterase (Homo sapiens, UniProt P06276); assay: hBChE inhibition, modified Ellman's method; format: biochemical
# Method: Three series of tacrine-squaramide homodimers were tested for their inhibitory potential against human AChE (hAChE) and human BChE (hBChE) enzymes using modified spectrophotometric method of Ellman et al.. THA, 6-Cl-THA and 7-MEOTA were used as reference compounds.
# (§1) Human plasmatic butyrylcholinesterase (BChE; EC 3.1.1.8) and recombinant acetylcholinesterase (AChE; 3.1.1.7) were prepared at the Department of Toxicology and Military Pharmacy. 5,5′-dithiobis(2-nitrobenzoic acid) (Ellman’s reagent, DTNB), phosphate buffer (PB, pH 7.4), acetylthiocholine (ATC) and butyrylthiocholine (BTC), were purchased from Sigma-Aldrich, Prague, Czech Republic. For measuring purposes – polystyrene Nunc 96-well microplates with flat bottom shape (ThermoFisher Scientific, USA) were utilized.
# (§2) All the assays were carried out in 0.1 M KH2PO4/K2HPO4 buffer, pH 7.4. Enzyme solutions were prepared at 2.0 units/mL in 2 mL aliquots. The assay medium (100 µL) consisted of 40 µL of 0.1 M phosphate buffer (pH 7.4), 20 µL of 0.01 M DTNB, 10 µL of the enzyme, and 20 µL of 0.01 M substrate (ATC/BTC iodide solution).
# (§3) Tested compounds were preincubated for 5 min. The reaction was started by immediate addition of 20 µL of the substrate. The activity was determined by measuring the increase in absorbance at 412 for AChE/BChE at 37 °C at 2 min intervals - using a Multi-mode microplate reader Synergy 2 (Winooski, VT, USA). Each concentration was assayed in triplicate. Software GraphPad Prizm 5 (San Diego, CA, USA) was used for the statistical data evaluation.
# hAChE = molecular target: T1, hAChE (Homo sapiens, UniProt P22303); assay: Kinetic study of AChE inhibition; format: biochemical
# T1 construct: made in house
# Method: (§4) Kinetic study was performed in order to describe the interactions of the compounds 4b and 3e with hAChE and hBChE, respectively. Inhibition kinetics were elucidated from velocity curves that were measured at several concentrations of the corresponding substrate (AChE—acetylthiocholine, BChE—butyrylthiocholine) and tested compounds. The type of enzyme inhibition and corresponding kinetic parameters (Ki and Ki’) were determined by nonlinear regression analysis. Results for each type model of inhibition (competitive, non-competitive, uncompetitive and mixed) were compared by sum-of-squares F-test. […].
# (§5) The kinetic study of AChE and BChE was performed by using the above-mentioned modified Ellman’s method. The values of Vmax and Km of the Michaelis-Menten kinetics as well as the values of Ki and Ki’ were calculated by nonlinear regression from the substrate velocity curves. Linear regression was used for calculation of Lineweaver-Burk plots. All calculations were performed using GraphPad Prism software version 6.07 for Windows (San Diego, CA, USA).
# [2] = molecular target: T2, human AChE (hAChE), recombinant acetylcholinesterase (Homo sapiens, UniProt P22303); assay: hAChE inhibition, modified Ellman's method; format: biochemical; settings: for SI (selectivity index for hAChE): ratio IC50(hBChE)/IC50(hAChE)
# T2 construct: made in house
# Method: Three series of tacrine-squaramide homodimers were tested for their inhibitory potential against human AChE (hAChE) and human BChE (hBChE) enzymes using modified spectrophotometric method of Ellman et al.. THA, 6-Cl-THA and 7-MEOTA were used as reference compounds. […].
# as §1, §2, §3
# in vitro = settings: human
# Method: The human origin cell line HepG2 (ATCC, Mannassas, VA, USA) isolated from liver hepatocellular carcinoma was used to evaluate cytotoxicity of tested compounds. The cells were cultivated in Dublecco’s modified Eagle’s medium (DMEM; Biosera, Nuaille, France) supplemented with 10% fetal bovine serum (Biosera) and 1% penicillin-streptomycin antibiotic solution (Sigma-Aldrich, St. Louis, MO, USA), incubated at 37 °C in a CO2 incubator (Binder CO2 incubator BC 160, Tuttlingen, Germany) and routinely passaged by trypsinization at 75–85% confluence.
# The final concentration of DMSO was less than 0.25% per well.
# After 24-h incubation, the medium containing serially diluted substances was aspirated from each well and replaced by 100 µL of fresh medium containing MTT (0.5 mg/mL). Plates were subsequently incubated at 37 °C in CO2 incubator for 45 min. The medium containing MTT was then aspirated and formazan dissolved in 100 μL of DMSO. The optical density of each well was measured using Synergy 2 Multi-Mode Microplate Reader (BioTek Instruments, Inc., Winooski, VT, USA) at 570 nm. The cell viability was expressed as the percentage of untreated control. Each experiment was performed in triplicate and repeated three independent times.
# The IC50 values were expressed as a mean ± standard error of the mean (SEM).
# [3] = for Pe: PAMPA, PBS pH 7.4; for BBB permeation prediction in words: PAMPA-BBB; for CNS (+/−) predicted BBB permeation: class from Pe
# From the text: An important feature for drugs targeting the brain is their ability to cross the BBB. The parallel artificial membrane permeability assay (PAMPA) is a high-throughput screening tool applicable for prediction of passive transport across BBB [57]. […] These include mainly (i) the different composition of the human phospholipid bilayer may cause deviation in predicted permeability, (ii) omitting the absorption of compounds that are actively transported by influx transporters and pumped-out by various efflux mechanisms with the glycoprotein P at the forefront or (iii) transport through the paracellular route which is mostly exploited by small […] molecules. Even considering these drawbacks, PAMPA-BBB is conceived as very simple but powerful tool for BBB prediction.
# PAMPA (the parallel artificial membrane permeability assay) is a high-throughput screening tool applicable for prediction of the passive transport of potential drugs across the blood-brain barrier (BBB). In this study, it has been used as a non-cell-based in vitro assay carried out in a coated 96-well membrane filter. The filter membrane of the donor plate was coated with PBL (Polar Brain Lipid, Avanti, USA) in dodecane (4 µl of 20 mg/mL PBL in dodecane) and the acceptor well was filled with 300 µl of phosphate buffer saline, (PBS pH 7.4; VA). The tested compounds were dissolved first in DMSO and then diluted with PBS pH 7.4 to reach the final concentrations 50–500 µM in the donor well. […] In principle, test compound diffuse from the donor well through the polar brain lipid membrane (area = 0.28 cm^2) to the acceptor well. The concentration of the tested compound in both donor and the acceptor wells were assessed after 3, 4, 5 and 6 h of incubation in quadruplicate using the UV plate reader Synergy HT (Biotek, USA) at the maximum absorption wavelength of each compound (n = 3). Besides that, the solution of theoretical compound concentration, simulating the equilibrium state, established if the membrane was ideally permeable was prepared and assessed as well.
# hBChE = hBChE (Homo sapiens, UniProt P06276); assay: Kinetic study of BChE inhibition; format: biochemical
# Method: as §4, §5
# [4] = nonlinear regression, sum-of-squares F-test, p < 0.05
# Sequence of hBChE (P06276 29-602): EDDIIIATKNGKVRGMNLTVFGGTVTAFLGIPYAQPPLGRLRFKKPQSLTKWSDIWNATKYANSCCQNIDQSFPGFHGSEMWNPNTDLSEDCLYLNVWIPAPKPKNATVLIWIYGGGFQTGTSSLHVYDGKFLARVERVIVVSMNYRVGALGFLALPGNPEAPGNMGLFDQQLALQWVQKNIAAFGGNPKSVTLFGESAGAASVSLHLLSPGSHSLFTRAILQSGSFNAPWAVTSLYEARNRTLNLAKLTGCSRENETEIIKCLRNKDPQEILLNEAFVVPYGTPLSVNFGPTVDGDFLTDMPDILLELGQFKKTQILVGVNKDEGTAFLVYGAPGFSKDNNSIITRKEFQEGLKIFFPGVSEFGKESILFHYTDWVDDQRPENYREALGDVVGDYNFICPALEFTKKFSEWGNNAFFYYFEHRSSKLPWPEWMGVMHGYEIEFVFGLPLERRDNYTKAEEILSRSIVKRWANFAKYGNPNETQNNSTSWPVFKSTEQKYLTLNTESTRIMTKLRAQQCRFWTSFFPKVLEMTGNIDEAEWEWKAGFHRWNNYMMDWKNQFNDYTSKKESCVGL
# T1 sequence (P22303 32-614): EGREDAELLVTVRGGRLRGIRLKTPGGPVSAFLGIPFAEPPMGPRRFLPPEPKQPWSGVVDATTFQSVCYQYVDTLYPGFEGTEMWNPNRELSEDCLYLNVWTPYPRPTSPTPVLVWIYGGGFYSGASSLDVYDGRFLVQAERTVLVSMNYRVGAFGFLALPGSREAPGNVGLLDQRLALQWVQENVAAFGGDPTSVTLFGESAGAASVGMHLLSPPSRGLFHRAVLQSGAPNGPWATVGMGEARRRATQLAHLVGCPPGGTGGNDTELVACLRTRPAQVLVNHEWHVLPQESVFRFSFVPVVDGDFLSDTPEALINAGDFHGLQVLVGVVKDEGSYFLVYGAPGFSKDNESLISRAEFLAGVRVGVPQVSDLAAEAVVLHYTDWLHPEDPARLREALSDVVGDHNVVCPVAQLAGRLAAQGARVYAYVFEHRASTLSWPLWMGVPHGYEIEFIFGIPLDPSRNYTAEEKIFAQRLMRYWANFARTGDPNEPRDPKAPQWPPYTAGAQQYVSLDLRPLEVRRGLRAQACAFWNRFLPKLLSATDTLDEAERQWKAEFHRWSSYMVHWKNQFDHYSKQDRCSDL
# T2 sequence (P22303 32-614): as above
# Sequence of human BChE (hBChE), human plasmatic butyrylcholinesterase (P06276 29-602): as the sequence (P06276 29-602) above
Compound,IC50 [1] [nM],"Ki' (hAChE; binding to enzyme-substrate complex, substrate acetylthiocholine) [nM]","Ki (hAChE; binding to free enzyme, substrate acetylthiocholine) [nM]",type of inhibition (hAChE; [4]),IC50 [2] [nM],times less active than bis(7)-tacrine (hAChE) ([2]; IC50 comparison with bis(7)-tacrine) [times],SI (selectivity index for hAChE) [2],IC50 at 24 h (in vitro) [µM],Pe [3] [cm/s],BBB permeation prediction in words [3],CNS (+/−) predicted BBB permeation [3],"Ki' (hBChE; binding to enzyme-substrate complex, substrate butyrylthiocholine) [nM]","Ki (hBChE; binding to free enzyme, substrate butyrylthiocholine) [nM]",type of inhibition (hBChE; [4])
"O=c1c(NCCCNc2c3c(nc4cc(Cl)ccc24)CCCC3)c(NCCCNc2c3c(nc4cc(Cl)ccc24)CCCC3)c1=O [Compound 4b, Bis({3-[(6-chloro-1,2,3,4-tetrahydroacridin-9-yl)amino]propyl}amino)cyclobut-3-ene-1,2-dione]",110,0.5 ± 0.2,0.4 ± 0.2,mixed type of inhibition,2,2.5,55,> 64,2.5e-06,uncertain BBB permeation,CNS +/− (CNS +/−: BBB permeation uncertain with Pe (10^−6 cm·s^−1) from 4.0 to 2.0),–,–,–
"O=c1c(NCCCCCCNc2c3c(nc4ccccc24)CCCC3)c(NCCCCCCNc2c3c(nc4ccccc24)CCCC3)c1=O [Compound 3e, Bis({6-[(1,2,3,4-tetrahydroacridin-9-yl)amino]hexyl}amino)cyclobut-3-ene-1,2-dione]",21,–,–,–,13,–,1.6,76,2.6e-06,uncertain BBB permeation,CNS +/− (CNS +/−: BBB permeation uncertain with Pe (10^−6 cm·s^−1) from 4.0 to 2.0),100 ± 28,8.1 ± 1.9,mixed type of inhibition
